Experimental data reported in ChEMBL document CHEMBL1201862, “PubChem BioAssay data set” (2004).
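A five-concentration, 48-hour dose response in 96-well plates underlies each endpoint, interpolated linearly between surrounding concentrations. GI50: concentration for 50% inhibition of growth.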 Active and inactive are the calls of the source. Rule as the data show it: active = GI50 up to about 1.1 µM and inactive = higher.

Tests used:
Test in all cases: NCI anticancer screen, dose series, 48 h
A549 = test system: A549
UACC-62 = test system: UACC-62
HCT-116 = test system: HCT-116
SF-539 = test system: SF-539
MDA-N = test system: MDA-N
HT-29 = test system: HT-29
BT-549 = test system: BT-549
NCI-H522 = test system: NCI-H522
MOLT-4 = test system: MOLT-4
MCF7 = test system: MCF7
UACC-257 = test system: UACC-257
MDA-MB-231 = test system: MDA-MB-231
RXF 393 = test system: RXF 393
SNB-19 = test system: SNB-19
Hs-578T = test system: Hs-578T
A498 = test system: A498
EKVX = test system: EKVX
SK-MEL-28 = test system: SK-MEL-28
SF-295 = test system: SF-295
ACHN = test system: ACHN
HCT-15 = test system: HCT-15
PC-3 = test system: PC-3
Malme-3M = test system: Malme-3M
HL-60 = test system: HL-60
OVCAR-8 = test system: OVCAR-8
786-0 = test system: 786-0
M14 = test system: M14
SNB-75 = test system: SNB-75
CCRF-CEM = test system: CCRF-CEM
U-251 = test system: U-251
OVCAR-3 = test system: OVCAR-3
HOP-62 = test system: HOP-62
KM12 = test system: KM12
NCI-H460 = test system: NCI-H460
COLO 205 = test system: COLO 205
CAKI-1 = test system: CAKI-1
LOX IMVI = test system: LOX IMVI
MDA-MB-435 = test system: MDA-MB-435
SF-268 = test system: SF-268
SK-MEL-2 = test system: SK-MEL-2
OVCAR-5 = test system: OVCAR-5
IGROV-1 = test system: IGROV-1
SW-620 = test system: SW-620
SK-OV-3 = test system: SK-OV-3
TK-10 = test system: TK-10
SR = test system: SR
NCI-H23 = test system: NCI-H23
NCI/ADR-RES = test system: NCI/ADR-RES
NCI-H226 = test system: NCI-H226
SN12C = test system: SN12C
HCC 2998 = test system: HCC 2998
K562 = test system: K562
HOP-92 = test system: HOP-92
UO-31 = test system: UO-31
DU-145 = test system: DU-145
OVCAR-4 = test system: OVCAR-4
SK-MEL-5 = test system: SK-MEL-5
T47D = test system: T47D
RPMI-8226 = test system: RPMI-8226

c1ccc(Nn2c(CCCCCCCCc3nnc(COc4ccccc4)n3Nc3ccccc3)nnc2COc2ccccc2)cc1
GI50 (A549): 11.8 µM (inactive) | GI50 (UACC-62): 1.74 µM (inactive) | GI50 (HCT-116): 16.2 µM (inactive) | GI50 (SF-539): 12.8 µM (inactive) | GI50 (MDA-N): 11 µM (inactive) | GI50 (HT-29): 24.3 µM (inactive) | GI50 (BT-549): 58.5 µM (inactive) | GI50 (NCI-H522): 16.1 µM (inactive) | GI50 (MOLT-4): 18 µM (inactive) | GI50 (MCF7): 11.5 µM (inactive) | GI50 (UACC-257): 13.9 µM (inactive) | GI50 (MDA-MB-231): 20 µM (inactive) | GI50 (RXF 393): 48.5 µM (inactive) | GI50 (SNB-19): 36.9 µM (inactive) | GI50 (Hs-578T): 72.8 µM (inactive) | GI50 (A498): 87.9 µM (inactive) | GI50 (EKVX): 32.7 µM (inactive)

CC(=O)c1ccc2c(c1)oc(=O)n2CCN(C)C
GI50 (SK-MEL-28): > 100 µM (inactive) | GI50 (SF-295): > 100 µM (inactive) | GI50 (ACHN): > 100 µM (inactive) | GI50 (HCT-15): > 100 µM | GI50 (PC-3): > 100 µM (inactive) | GI50 (Malme-3M): 2.02 µM (inactive) | GI50 (HL-60): > 100 µM (inactive) | GI50 (OVCAR-8): > 100 µM (inactive) | GI50 (786-0): > 100 µM (inactive) | GI50 (M14): > 100 µM (inactive) | GI50 (SNB-75): 21.7 µM (inactive) | GI50 (UACC-62): > 100 µM (inactive) | GI50 (CCRF-CEM): > 100 µM (inactive) | GI50 (HCT-116): > 100 µM (inactive) | GI50 (U-251): > 100 µM (inactive) | GI50 (SF-539): > 100 µM (inactive) | GI50 (OVCAR-3): > 100 µM (inactive) | GI50 (HOP-62): > 100 µM (inactive) | GI50 (HT-29): 93.8 µM (inactive) | GI50 (KM12): > 100 µM (inactive) | GI50 (NCI-H460): > 100 µM (inactive) | GI50 (COLO 205): > 100 µM (inactive) | GI50 (CAKI-1): > 100 µM (inactive) | GI50 (BT-549): > 100 µM (inactive) | GI50 (LOX IMVI): > 100 µM (inactive) | GI50 (MOLT-4): > 100 µM (inactive) | GI50 (MDA-MB-435): > 100 µM (inactive) | GI50 (MCF7): > 100 µM (inactive) | GI50 (UACC-257): > 100 µM (inactive) | GI50 (SF-268): > 100 µM (inactive) | GI50 (MDA-MB-231): > 100 µM (inactive) | GI50 (SK-MEL-2): > 100 µM (inactive) | GI50 (OVCAR-5): > 100 µM (inactive) | GI50 (IGROV-1): 32.1 µM (inactive) | GI50 (SW-620): > 100 µM (inactive) | GI50 (RXF 393): > 100 µM (inactive) | GI50 (SK-OV-3): > 100 µM (inactive) | GI50 (TK-10): > 100 µM (inactive) | GI50 (SR): > 100 µM (inactive) | GI50 (NCI-H23): > 100 µM (inactive) | GI50 (NCI/ADR-RES): > 100 µM (inactive) | GI50 (NCI-H226): > 100 µM (inactive) | GI50 (Hs-578T): 51.6 µM (inactive) | GI50 (A498): > 100 µM (inactive) | GI50 (EKVX): > 100 µM (inactive)

CC(OC(C)(C)C)[C@H](NC(=O)OCc1ccccc1)C(=O)NC(OCc1ccccc1)[C@H]1COC(C)(C)O1 (stereo not given in full)
GI50 (SK-MEL-28): > 100 µM (inactive) | GI50 (SF-295): > 10 µM (inactive) | GI50 (ACHN): > 10 µM (inactive) | GI50 (HCT-15): > 10 µM | GI50 (PC-3): > 10 µM (inactive) | GI50 (SN12C): > 10 µM (inactive) | GI50 (Malme-3M): > 10 µM (inactive) | GI50 (HL-60): > 10 µM (inactive) | GI50 (OVCAR-8): > 10 µM (inactive) | GI50 (HCC 2998): > 10 µM (inactive) | GI50 (A549): 39.3 µM (inactive) | GI50 (786-0): > 10 µM (inactive) | GI50 (M14): > 10 µM (inactive) | GI50 (SNB-75): > 10 µM (inactive) | GI50 (UACC-62): > 10 µM (inactive) | GI50 (CCRF-CEM): > 10 µM (inactive) | GI50 (HCT-116): 50.7 µM (inactive) | GI50 (U-251): > 10 µM (inactive) | GI50 (SF-539): > 10 µM (inactive) | GI50 (OVCAR-3): > 10 µM (inactive) | GI50 (MDA-N): > 10 µM (inactive) | GI50 (HOP-62): > 10 µM (inactive) | GI50 (HT-29): > 10 µM (inactive) | GI50 (KM12): > 10 µM (inactive) | GI50 (NCI-H460): > 10 µM (inactive) | GI50 (K562): > 10 µM (inactive) | GI50 (COLO 205): > 10 µM (inactive) | GI50 (CAKI-1): > 10 µM (inactive) | GI50 (BT-549): > 10 µM (inactive) | GI50 (LOX IMVI): > 10 µM (inactive) | GI50 (NCI-H522): > 10 µM (inactive) | GI50 (MOLT-4): > 10 µM (inactive) | GI50 (MDA-MB-435): > 10 µM (inactive) | GI50 (HOP-92): > 10 µM (inactive) | GI50 (UACC-257): > 10 µM (inactive) | GI50 (SF-268): 40.3 µM (inactive) | GI50 (MDA-MB-231): > 10 µM (inactive) | GI50 (UO-31): > 10 µM (inactive) | GI50 (SK-MEL-2): > 10 µM (inactive) | GI50 (OVCAR-5): > 10 µM (inactive) | GI50 (IGROV-1): > 10 µM (inactive) | GI50 (DU-145): > 100 µM (inactive) | GI50 (SW-620): > 10 µM (inactive) | GI50 (RXF 393): 21.8 µM (inactive) | GI50 (SK-OV-3): > 10 µM (inactive) | GI50 (TK-10): > 10 µM (inactive) | GI50 (NCI-H23): > 10 µM (inactive) | GI50 (OVCAR-4): > 10 µM (inactive) | GI50 (SNB-19): > 10 µM (inactive) | GI50 (NCI/ADR-RES): > 10 µM (inactive) | GI50 (NCI-H226): > 10 µM (inactive) | GI50 (Hs-578T): > 10 µM (inactive) | GI50 (A498): > 10 µM (inactive) | GI50 (SK-MEL-5): > 10 µM (inactive) | GI50 (EKVX): > 10 µM (inactive)

CN(C)/C=N\c1cccc2c1NSN2
GI50 (SK-MEL-28): > 100 µM (inactive) | GI50 (SF-295): > 100 µM (inactive) | GI50 (ACHN): > 100 µM (inactive) | GI50 (HCT-15): > 100 µM | GI50 (PC-3): > 100 µM (inactive) | GI50 (SN12C): > 100 µM (inactive) | GI50 (Malme-3M): > 100 µM (inactive) | GI50 (HL-60): > 100 µM (inactive) | GI50 (OVCAR-8): > 100 µM (inactive) | GI50 (HCC 2998): > 100 µM (inactive) | GI50 (A549): > 100 µM (inactive) | GI50 (786-0): > 100 µM (inactive) | GI50 (M14): > 100 µM (inactive) | GI50 (SNB-75): > 100 µM (inactive) | GI50 (UACC-62): > 100 µM (inactive) | GI50 (CCRF-CEM): > 100 µM (inactive) | GI50 (HCT-116): > 100 µM (inactive) | GI50 (U-251): > 100 µM (inactive) | GI50 (SF-539): > 100 µM (inactive) | GI50 (OVCAR-3): > 100 µM (inactive) | GI50 (MDA-N): > 100 µM (inactive) | GI50 (HOP-62): > 100 µM (inactive) | GI50 (HT-29): > 100 µM (inactive) | GI50 (KM12): > 100 µM (inactive) | GI50 (NCI-H460): > 100 µM (inactive) | GI50 (K562): > 100 µM (inactive) | GI50 (COLO 205): > 100 µM (inactive) | GI50 (CAKI-1): > 100 µM (inactive) | GI50 (LOX IMVI): > 100 µM (inactive) | GI50 (NCI-H522): > 100 µM (inactive) | GI50 (MOLT-4): > 100 µM (inactive) | GI50 (MDA-MB-435): > 100 µM (inactive) | GI50 (HOP-92): > 100 µM (inactive) | GI50 (MCF7): > 100 µM (inactive) | GI50 (T47D): > 100 µM (inactive) | GI50 (UACC-257): > 100 µM (inactive) | GI50 (SF-268): > 100 µM (inactive) | GI50 (MDA-MB-231): > 100 µM (inactive) | GI50 (UO-31): > 100 µM (inactive) | GI50 (SK-MEL-2): > 100 µM (inactive) | GI50 (OVCAR-5): > 100 µM (inactive) | GI50 (IGROV-1): > 100 µM (inactive) | GI50 (DU-145): > 100 µM (inactive) | GI50 (SW-620): > 100 µM (inactive) | GI50 (RXF 393): > 100 µM (inactive) | GI50 (SK-OV-3): > 100 µM (inactive) | GI50 (TK-10): > 100 µM (inactive) | GI50 (SR): > 100 µM (inactive) | GI50 (NCI-H23): > 100 µM (inactive) | GI50 (OVCAR-4): > 100 µM (inactive) | GI50 (SNB-19): > 100 µM (inactive) | GI50 (NCI/ADR-RES): > 100 µM (inactive) | GI50 (NCI-H226): > 100 µM (inactive) | GI50 (Hs-578T): > 100 µM (inactive) | GI50 (RPMI-8226): > 100 µM (inactive) | GI50 (A498): > 100 µM (inactive) | GI50 (SK-MEL-5): > 100 µM (inactive) | GI50 (EKVX): > 100 µM (inactive)
